The text below walks through data of patent US20260248918A1, “COMPOSITIONS AND METHODS OF SUPPRESSING AVERSIVENESS OF PHARMACEUTICALS AND INGESTIBLE MATERIALS” (Monell Chemical Senses Center, priority 2019, published 2026).

The target in one assay is T1, TAS2R14 (Homo sapiens, UniProt Q9NYV8).
T1 sequence (Q9NYV8 1-317): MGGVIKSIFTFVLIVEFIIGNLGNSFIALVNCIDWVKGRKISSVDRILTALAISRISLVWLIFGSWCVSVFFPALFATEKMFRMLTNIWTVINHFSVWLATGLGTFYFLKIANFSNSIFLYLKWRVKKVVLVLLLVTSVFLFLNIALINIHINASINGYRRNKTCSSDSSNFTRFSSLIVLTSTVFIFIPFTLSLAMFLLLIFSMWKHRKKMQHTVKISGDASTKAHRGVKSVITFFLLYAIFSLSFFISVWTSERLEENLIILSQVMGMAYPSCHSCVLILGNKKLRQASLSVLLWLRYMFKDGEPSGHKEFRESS
Kind of assay: Response profile of TAS2Rs to target compounds: TAS2R14. In kind it is cell-based. The following applies: FIG. 4: Praziquantel 0.75 mM, L-praziquantel 0.1 mM, Dihydroartemisinin 2 mM (not fully dissolved), Piperaquine 0.5 mM, TAF 1 mM, Ritonavir 1 mM, Zinc sulfate 20 mM. The protocol:
(§1) FIG. 4 is a table showing response profiles of TAS2Rs to indicated target compounds at indicated concentrations. Praziquantel: 0.75 mM, L-praziquantel: 0.1 mM, Zinc sulfate: 20 mM, Dihydroartemisinin: 2 mM (not fully dissolved), Piperaquine, 0.5 mM, Tenofovir (TAF), 1 mM and Ritonavir, 1 mM. Symbols: + means that there was activation; a − negative sign means that there was no significant activation of the receptor; a “larger + sign” means that receptor(s) were most sensitive to the compound (activated at lower concentrations.
(§2) Using a primary hTBEC platform, a high throughput screening (HTS) was conducted with more than 2,000 small molecular weight purified phytochemicals and botanical extracts. The screen identified 40 antagonists that suppressed taste cell activation by target APIs. […] TAS2R1 is responsive to piperaquine and tenofovir. (See FIG. 4)

Another assay concerns the target T2, TAS2R1 (Homo sapiens, UniProt Q9NYW7).
T2 sequence (Q9NYW7 1-299): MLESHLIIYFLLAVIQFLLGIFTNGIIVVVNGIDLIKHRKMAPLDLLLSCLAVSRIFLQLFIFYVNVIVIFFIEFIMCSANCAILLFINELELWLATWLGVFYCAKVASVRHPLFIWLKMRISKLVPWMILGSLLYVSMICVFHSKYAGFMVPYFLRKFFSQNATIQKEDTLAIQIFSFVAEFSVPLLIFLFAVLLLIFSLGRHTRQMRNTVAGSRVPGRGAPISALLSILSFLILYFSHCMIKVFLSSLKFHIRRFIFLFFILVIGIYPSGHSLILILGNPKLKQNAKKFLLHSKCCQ
Kind of assay: Response profile of TAS2Rs to target compounds: TAS2R1. The assay is classed as cell-based. The following applies: FIG. 4: Piperaquine 0.5 mM, Tenofovir (TAF) 1 mM. The protocol: as §1, §2

Assay [1] concerns the target T3, TAS2R39 (Homo sapiens, UniProt P59534).
T3 sequence (P59534 1-338): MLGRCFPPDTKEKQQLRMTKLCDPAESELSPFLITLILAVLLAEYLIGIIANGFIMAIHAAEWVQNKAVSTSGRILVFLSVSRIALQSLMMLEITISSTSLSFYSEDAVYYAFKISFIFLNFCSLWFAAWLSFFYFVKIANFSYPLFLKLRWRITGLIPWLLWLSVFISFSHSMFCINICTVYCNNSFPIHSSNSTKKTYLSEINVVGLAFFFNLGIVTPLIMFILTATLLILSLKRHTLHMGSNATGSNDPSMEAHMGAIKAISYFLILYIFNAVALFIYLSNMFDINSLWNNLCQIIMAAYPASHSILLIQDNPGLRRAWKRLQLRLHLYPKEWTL
Kind of assay: Response profile of TAS2Rs to target compounds: TAS2R39. The assay is classed as cell-based. Details: expressed in transfected cells; host or cells: HEK. The following applies: FIG. 4: Piperaquine 0.5 mM, Tenofovir (TAF) 1 mM, Dihydroartemisinin 2 mM (not fully dissolved). The protocol:
as §1, §2

The test system of another assay is human subjects. Kind of assay: Human sensory testing (gLMS) of API bitterness with blocker, as pre-rinse or admixture. In kind it is in vivo. The following applies: added as sensory excipients to APIs. An excerpt: Methods of evaluating the sensory properties of the API and admixtures with the blocker compounds of Formula A are adopted from Breslin PA, and Tharp CD, “Reduction of saltiness and bitterness after a chlorhexidine rinse,” Chem Senses. 2001 February; 26(2):105-16. More details are illustrated below.
Subjects participate in the study after providing informed consent. Gender of the subjects is balanced between male and female. The subjects are adults with ages ranging from 20 years old to 50 years old. […] The participants are asked to refrain from eating, drinking, or chewing gum for 1 hr prior to testing. Subjects are trained to use the General Labeled Magnitude Scale (gLMS) following standard published procedures. See. e.g., Breslin P A, and Tharp C D. “Reduction of saltiness and bitterness after a chlorhexidine rinse,” Chem Senses. 2001 February; 26(2): 105-16; Keast and Breslin, “Bitterness suppression with zinc sulfate and Na-cyclamate: a model of combined peripheral and central neural approaches to flavor modification.” Pharm Res. 2005 November; 22(11):1970-7. Epub 2005 Aug. 26; Green et al, “Evaluating the ‘Labeled Magnitude Scale’ for measuring sensations of taste and smell.” Chem Senses. 1996 June; 21(3):323-34; Barry G. Green, et al, “Derivation and evaluation of a semantic scale of oral sensation magnitude with apparent ratio properties,” Chemical Senses, Volume 18, Issue 6, 1 Dec. 1993, Pages 683-702; and Bartoshuk L M, “Comparing sensory experiences across individuals: recent psychophysical advances illuminate genetic variation in taste perception.” Chem Senses. 2000 August; 25(4):447-60.
The selected API (in racemic or L form as applicable) is diluted/dissolved in deionized (di) filtered water upon use into various concentrations. […] The API is prepared and dissolved in deionized filtered water or in […] 6-methylflavone to a final concentration. All solutions are stored on ice or at 4° C. to 8° C. and brought up to room temperature prior to testing.
The following testing protocol is performed. The tested solutions are provided to the subjects in random order. Subjects rinsed with di water at least four times over a 2-minute period prior to tasting each solution. The subjects are instructed to wear nose clips to eliminate olfactory input, pour the whole solution in their mouth for 3-5 seconds, and rate the perceived sensation (including bitterness, sourness, astringency, burning, stinging and nausea) intensity of the solution while it remained in the mouth, prior to expectorating. Taste intensity is recorded on a computerized gLMS, analyzed and plotted.

Assay [2] addresses T3, TAS2R39. The following applies: reported in Roland et al. 2014, data not shown; cited from earlier work.

Structures can show the parent of a compound that is named as a salt.

For the compound `O=C(C1CCCCC1)N1CC(=O)N2CCc3ccccc3C2C1` (racemic) [Praziquantel], the “Activation of TAS2R14” value at TAS2R14 is “one of most responsive receptors”.

Take `CC(C)c1nc(CN(C)C(=O)N[C@H](C(=O)N[C@@H](Cc2ccccc2)C[C@H](O)[C@H](Cc2ccccc2)NC(=O)OCc2cncs2)C(C)C)cs1` [Ritonavir]: on TAS2R14, the “Activation of TAS2R14” value is reported as “one of most responsive receptors”.

Consider `Clc1ccc2c(N3CCN(CCCN4CCN(c5ccnc6cc(Cl)ccc56)CC4)CC3)ccnc2c1` [Piperaquine], for which the “Activation of TAS2R1” value at TAS2R1 is recorded as “responsive”. For the same compound, the “Activation of TAS2R39” value on TAS2R39 [1] is listed as “one of the most responsive receptors”.

Turning to zinc, in the assay with human subjects, the “Reduction of API bitterness by sensory excipients” value was “significantly reduce”.

Consider sodium, for which, in the assay on human subjects, the “Reduction of API bitterness by sensory excipients” value is “significantly reduce”.

As for `COc1ccc2oc(-c3ccccc3)cc(=O)c2c1` [6-methoxyflavone], the “Inhibition of hTAS2R39 activation” value at TAS2R39 [2] is “unable to inhibit”.

`CC(C)OC(=O)[C@H](C)N[P@](=O)(CO[C@H](C)Cn1cnc2c(N)ncnc21)Oc1ccccc1` [TAF, tenofovir alafenamide fumarate]: the “Activation of TAS2R1” value at TAS2R1 is reported as “responsive”. Besides, the “Activation of TAS2R39” value at TAS2R39 [1] is given as “one of the most responsive receptors”.

As for `O=C(C1CCCCC1)N1CC(=O)N2CCc3ccccc3[C@@H]2C1` [L-praziquantel], at TAS2R14, the “Activation of TAS2R14” value is on record as “one of most responsive receptors”.
